Legend:
[1] = molecular target: T1, Human PDGFRβ, cytoplasmic domain (GST-PDGFRβ) (Homo sapiens, UniProt P09619); assay: Human PDGFRβ biochemical inhibition assay (off-chip Mobility Shift Assay)
T1 construct: made in house
How it was run: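 GST-tagged cytoplasmic domain (aa 557-1106) from baculovirus was incubated 1 h at room temperature with compound, CSKtide, ATP at Km and Mg²⁺ in HEPES buffer, pH 7.5. Phosphorylated and unphosphorylated peptide were separated by off-chip mobility shift, and the product ratio P/(P+S) gave percent inhibition.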

[2] = molecular target: T2, Human PDGFRα, cytoplasmic domain (GST-PDGFRα) (Homo sapiens, UniProt P16234); assay: Human PDGFRα biochemical inhibition assay (off-chip Mobility Shift Assay)
T2 construct: made in house
T2 sequence (P16234 550-1089 T674I): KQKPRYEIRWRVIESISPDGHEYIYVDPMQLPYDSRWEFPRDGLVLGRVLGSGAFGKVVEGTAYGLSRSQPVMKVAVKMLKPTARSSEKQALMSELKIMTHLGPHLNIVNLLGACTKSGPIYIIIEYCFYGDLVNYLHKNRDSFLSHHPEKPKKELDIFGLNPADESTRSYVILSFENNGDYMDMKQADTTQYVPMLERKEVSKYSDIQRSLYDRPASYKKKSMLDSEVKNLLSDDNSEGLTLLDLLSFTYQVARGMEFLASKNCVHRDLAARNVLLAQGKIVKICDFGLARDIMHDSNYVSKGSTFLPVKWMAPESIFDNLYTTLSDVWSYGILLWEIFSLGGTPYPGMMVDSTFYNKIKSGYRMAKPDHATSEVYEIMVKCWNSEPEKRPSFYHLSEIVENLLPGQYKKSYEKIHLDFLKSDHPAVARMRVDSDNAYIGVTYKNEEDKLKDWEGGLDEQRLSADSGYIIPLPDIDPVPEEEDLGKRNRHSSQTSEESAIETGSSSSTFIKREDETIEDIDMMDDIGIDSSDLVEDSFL

T1 sequence (P09619 with tags, fused parts or gaps): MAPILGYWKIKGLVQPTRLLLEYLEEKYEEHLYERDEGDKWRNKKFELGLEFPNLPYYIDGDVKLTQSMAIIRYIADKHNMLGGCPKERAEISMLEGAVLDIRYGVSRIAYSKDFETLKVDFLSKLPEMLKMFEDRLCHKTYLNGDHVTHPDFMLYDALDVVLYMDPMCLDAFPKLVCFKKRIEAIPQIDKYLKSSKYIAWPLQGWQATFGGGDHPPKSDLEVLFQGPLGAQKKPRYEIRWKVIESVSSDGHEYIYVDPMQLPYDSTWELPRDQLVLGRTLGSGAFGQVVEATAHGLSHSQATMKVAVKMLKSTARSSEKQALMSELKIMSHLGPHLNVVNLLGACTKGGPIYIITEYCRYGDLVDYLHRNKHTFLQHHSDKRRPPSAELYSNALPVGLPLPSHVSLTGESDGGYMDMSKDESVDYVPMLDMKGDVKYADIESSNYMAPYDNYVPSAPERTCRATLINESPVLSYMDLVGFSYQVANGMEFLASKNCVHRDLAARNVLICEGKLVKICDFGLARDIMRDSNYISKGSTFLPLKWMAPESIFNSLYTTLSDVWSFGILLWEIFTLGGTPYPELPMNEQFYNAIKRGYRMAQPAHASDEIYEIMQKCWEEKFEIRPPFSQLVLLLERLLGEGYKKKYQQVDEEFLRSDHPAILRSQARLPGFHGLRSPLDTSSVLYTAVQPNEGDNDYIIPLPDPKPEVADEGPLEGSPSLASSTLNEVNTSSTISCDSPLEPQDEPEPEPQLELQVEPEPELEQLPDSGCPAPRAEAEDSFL

COc1ccc(Cn2ccc3ncc(N[C@@H](C)c4cccc(NC(=O)c5cncc(C)c5)c4)nc32)cc1OC [Compound 88, (S)-N-(3-(1-((5-(3,4-dimethoxybenzyl)-5H-pyrrolo [2,3-b]pyrazin-3-yl)amino)ethyl)phenyl)-5-methylnicotinamide]
IC50 [1]: ≥ 1000 nM
IC50 [2]: < 300 nM

Cc1cncc(C(=O)Nc2cccc([C@H](C)Nc3cnc4cnn(C)c4c3)c2)c1 [Compound 89, (S)-5-methyl-N-(3-(1-((1-methyl-1H-pyrazolo[4,3-b]pyridin-6-yl)amino)ethyl)phenyl)nicotinamide]
IC50 [1]: 300 to 1000 nM
IC50 [2]: < 300 nM

Cc1cncc(C(=O)Nc2cccc([C@H](C)Nc3cnc4cn[nH]c4n3)c2)c1 [Compound 90, (S)-N-(3-(1-((1H-pyrazolo[3,4-b]pyrazin-6-yl)amino)ethyl)phenyl)-5-methylnicotinamide]
IC50 [1]: < 300 nM
IC50 [2]: < 300 nM

CCc1cncc(C(=O)Nc2cccc([C@H](C)Nc3cnc4cn[nH]c4n3)c2)c1 [Compound 91, (S)-N-(3-(1-((1H-pyrazolo[3,4-b]pyrazin-6-yl)amino)ethyl)phenyl)-5-ethylnicotinamide]
IC50 [1]: < 300 nM
IC50 [2]: < 300 nM

C[C@H](Nc1cnc2cn[nH]c2n1)c1cccc(NC(=O)c2cncc(CO)c2)c1 [Compound 92, (S)-N-(3-(1-((1H-pyrazolo[3,4-b]pyrazin-6-yl)amino)ethyl)phenyl)-5-(hydroxymethyl) nicotinamide]
IC50 [1]: ≥ 1000 nM
IC50 [2]: < 300 nM

C[C@H](Nc1cnc2cn[nH]c2n1)c1cccc(NC(=O)c2cncc(C3CC3)c2)c1 [Compound 93, (S)-N-(3-(1-((1H-pyrazolo[3,4-b]pyrazin-6-yl)amino)ethyl)phenyl)-5-cyclopropylnicotinamide]
IC50 [1]: < 300 nM
IC50 [2]: < 300 nM

C[C@H](Nc1cnc2cn[nH]c2n1)c1cccc(NC(=O)c2cncc(C(C)(C)F)c2)c1 [Compound 94, (S)-N-(3-(1-((1H-pyrazolo[3,4-b]pyrazin-6-yl)amino)ethyl)phenyl)-5-(2-fluoropropan-2-yl) nicotinamide]
IC50 [1]: < 300 nM
IC50 [2]: < 300 nM

C[C@H](Nc1cnc2cn[nH]c2n1)c1cccc(NC(=O)c2cncc(C(C)(C)O)c2)c1 [Compound 95, (S)-N-(3-(1-((1H-pyrazolo[3,4-6]pyrazin-6-yl)amino)ethyl)phenyl)-5-(2-hydroxypropan-2-yl)nicotinamide]
IC50 [1]: < 300 nM
IC50 [2]: < 300 nM

C[C@H](Nc1cnc2cn[nH]c2n1)c1cccc(NC(=O)c2cncc(C3CCC3)c2)c1 [Compound 96, (S)-N-(3-(1-((1H-pyrazolo[3,4-b]pyrazin-6-yl)amino)ethyl)phenyl)-5-cyclobutylnicotinamide]
IC50 [1]: < 300 nM
IC50 [2]: < 300 nM

C[C@H](Nc1cnc2cn[nH]c2n1)c1cccc(NC(=O)c2cncc(C3COC3)c2)c1 [Compound 97, (S)-N-(3-(1-((1H-pyrazolo[3,4-b]pyrazin-6-yl)amino)ethyl)phenyl)-5-(oxetan-3-yl) nicotinamide]
IC50 [1]: < 300 nM
IC50 [2]: < 300 nM

Cc1cc(C(=O)Nc2cccc([C@H](C)Nc3cnc4cn[nH]c4n3)c2)cnc1C(F)(F)F [Compound 98, (S)-N-(3-(1-((1H-pyrazolo[3,4-b]pyrazin-6-yl)amino)ethyl)phenyl)-5-methyl-6-(trifluoromethyl)nicotinamide]
IC50 [1]: < 300 nM
IC50 [2]: < 300 nM

C[C@H](Nc1cnc2cn[nH]c2n1)c1cccc(NC(=O)c2ccc(C(F)(F)F)nc2)c1 [Compound 99, (S)-N-(3-(1-((1H-pyrazolo[3,4 b]pyrazin-6-yl)amino)ethyl)phenyl)-6-(trifluoromethyl) nicotinamide]
IC50 [1]: < 300 nM
IC50 [2]: < 300 nM

CC(C)n1cc(C(=O)Nc2cccc([C@H](C)Nc3cnc4cn[nH]c4n3)c2)cn1 [Compound 100, (S)-N-(3-(1-((1H-pyrazolo[3,4-b]pyrazin-6-yl)amino)ethyl)phenyl)-1-isopropyl-1H-pyrazole-4-carboxamide]
IC50 [1]: < 300 nM
IC50 [2]: < 300 nM

CCc1cncc(C(=O)Nc2cccc([C@H](C)Nc3cnc4cnn(C)c4n3)c2)c1 [Compound 101]
IC50 [1]: < 300 nM
IC50 [2]: < 300 nM

C[C@H](Nc1cnc2cnn(C)c2n1)c1cccc(NC(=O)c2cncc(C(F)(F)F)c2)c1 [Compound 102, (S)-N-(3-(1-((1-methyl-1H-pyrazolo[3,4-b]pyrazin-6-yl)amino)ethyl)phenyl)-5-(trifluoromethyl)nicotinamide]
IC50 [1]: < 300 nM
IC50 [2]: < 300 nM

C[C@H](Nc1cnc2cnn(C)c2n1)c1cccc(NC(=O)c2cncc(C(F)F)c2)c1 [Compound 103, (S)-5-(difluoromethyl)-N-(3-(1-((1-methyl-1H-pyrazolo[3,4-b]pyrazin-6-yl)amino)ethyl)phenyl)nicotinamide]
IC50 [1]: < 300 nM
IC50 [2]: < 300 nM

COc1cncc(C(=O)Nc2cccc([C@H](C)Nc3cnc4cnn(C)c4n3)c2)c1 [Compound 104, (S)-5-methoxy-N-(3-(1-((1-methyl-1H-pyrazolo[3,4-b]pyrazin-6-yl)amino)ethyl)phenyl)nicotinamide]
IC50 [1]: < 300 nM
IC50 [2]: < 300 nM

C[C@H](Nc1cnc2cnn(C)c2n1)c1cccc(NC(=O)c2cncc(C3CC3)c2)c1 [Compound 105, (S)-5-cyclopropyl-N-(3-(1-((1-methyl-1H-pyrazolo[3,4-b]pyrazin-6-yl)amino)ethyl)phenyl)nicotinamide]
IC50 [1]: < 300 nM
IC50 [2]: < 300 nM

C[C@H](Nc1cnc2cnn(C)c2n1)c1cccc(NC(=O)c2cncc(CO)c2)c1 [Compound 106, (S)-5-(hydroxymethyl)-N-(3-(1-((1-methyl-1H-pyrazolo[3,4-b]pyrazin-6-yl)amino)ethyl)phenyl)nicotinamide]
IC50 [1]: 300 to 1000 nM
IC50 [2]: < 300 nM

C[C@H](Nc1cnc2cnn(C)c2n1)c1cccc(NC(=O)c2cncc(C(C)(C)O)c2)c1 [Compound 107, (S)-5-(2-hydroxypropan-2-yl)-N-(3-(1-((1-methyl-1H-pyrazolo[3,4-b]pyrazin-6-yl)amino)ethyl)phenyl) nicotinamide]
IC50 [1]: < 300 nM
IC50 [2]: < 300 nM

C[C@H](Nc1cnc2cnn(C)c2n1)c1cccc(NC(=O)c2cncc(C(C)(C)F)c2)c1 [Compound 108, (S)-5-(2-fluoropropan-2-yl)-N-(3-(1-((1-methyl-1H-pyrazolo[3,4-b]pyrazin-6-yl)amino)ethyl)phenyl) nicotinamide]
IC50 [1]: < 300 nM
IC50 [2]: < 300 nM

C[C@H](Nc1cnc2cnn(C)c2n1)c1cccc(NC(=O)c2cncc(Cl)c2)c1 [Compound 109, (S)-5-chloro-N-(3-(1-((1-methyl-1H-pyrazolo[3,4-b]pyrazin-6-yl)amino)ethyl)phenyl)nicotinamide]
IC50 [1]: < 300 nM
IC50 [2]: < 300 nM

C[C@H](Nc1cnc2cnn(C)c2n1)c1cccc(NC(=O)c2cncc(Br)c2)c1 [Compound 111, (S)-5-bromo-N-(3-(1-((1-methyl-1H-pyrazolo[3,4-b]pyrazin-6-yl)amino)ethyl)phenyl)nicotinamide]
IC50 [1]: < 300 nM
IC50 [2]: < 300 nM

COCc1cncc(C(=O)Nc2cccc([C@H](C)Nc3cnc4cnn(C)c4n3)c2)c1 [Compound 112, (S)-5-(methoxymethyl)-N-(3-(1-((1-methyl-1H-pyrazolo[3,4-b]pyrazin-6-yl)amino)ethyl)phenyl)nicotinamide]
IC50 [1]: < 300 nM
IC50 [2]: < 300 nM

C#Cc1cncc(C(=O)Nc2cccc([C@H](C)Nc3cnc4cnn(C)c4n3)c2)c1 [Compound 113, (S)-5-ethynyl-N-(3-(1-((1-methyl-1H-pyrazolo[3,4-b]pyrazin-6-yl)amino)ethyl)phenyl)nicotinamide]
IC50 [1]: 300 to 1000 nM
IC50 [2]: < 300 nM

C[C@H](Nc1cnc2cnn(C)c2n1)c1cccc(NC(=O)c2cncc(C3COC3)c2)c1 [Compound 114, (S)-N-(3-(1-((1-methyl-1H-pyrazolo[3,4-b]pyrazin-6-yl)amino)ethyl)phenyl)-5-(oxetan-3-yl)nicotinamide]
IC50 [1]: < 300 nM
IC50 [2]: < 300 nM

C[C@H](Nc1cnc2cnn(C)c2n1)c1cccc(NC(=O)c2ccc(C(F)(F)F)nc2)c1 [Compound 115, (S)-N-(3-(1-((1-methyl-1H-pyrazolo[3,4-b]pyrazin-6-yl)amino)ethyl)phenyl)-6-(trifluoromethyl)nicotinamide]
IC50 [1]: < 300 nM
IC50 [2]: < 300 nM

C[C@H](Nc1cnc2cnn(C)c2n1)c1cccc(NC(=O)c2ccc(C3CC3)nc2)c1 [Compound 116, (S)-6-cyclopropyl-N-(3-(1-((1-methyl-1H-pyrazolo[3,4-b]pyrazin-6-yl)amino)ethyl)phenyl)nicotinamide]
IC50 [1]: < 300 nM
IC50 [2]: < 300 nM

C[C@H](Nc1cnc2cnn(C)c2n1)c1cccc(NC(=O)c2ccc(C#N)nc2)c1 [Compound 117, (S)-6-cyano-N-(3-(1-((1-methyl-1H-pyrazolo[3,4-b]pyrazin-6-yl)amino)ethyl)phenyl) nicotinamide]
IC50 [1]: ≥ 1000 nM
IC50 [2]: < 300 nM

C[C@H](Nc1cnc2cnn(C)c2n1)c1cccc(NC(=O)c2ccc(OC(F)F)nc2)c1 [Compound 118, (S)-6-(difluoromethoxy)-N-(3-(1-((1-methyl-1H-pyrazolo[3,4-6]pyrazin-6-yl)amino)ethyl)phenyl)nicotinamide]
IC50 [1]: < 300 nM
IC50 [2]: < 300 nM

C[C@H](Nc1cnc2cnn(C)c2n1)c1cccc(NC(=O)c2ccc(OC(F)(F)F)nc2)c1 [Compound 119, (S)-N-(3-(1-((1-methyl-1H-pyrazolo[3,4-b]pyrazin-6-yl)amino)ethyl)phenyl)-6-(trifluoromethoxy)nicotinamide]
IC50 [1]: < 300 nM
IC50 [2]: < 300 nM

CNc1ccc(C(=O)Nc2cccc([C@H](C)Nc3cnc4cnn(C)c4n3)c2)cn1 [Compound 120, (S)-N-(3-(1-((1-methyl-1H-pyrazolo[3,4-b]pyrazin-6-yl)amino)ethyl)phenyl)-6-(methylamino)nicotinamide]
IC50 [1]: 300 to 1000 nM
IC50 [2]: < 300 nM
